Results reported in patent US11051515B2, “3-acyl-benzamides and their use as herbicides” (Bayer Aktiengesellschaft, priority 2017, dated 2021).

Columns and labels:
MATIN [1] = experiment: Post-emergence action against MATIN; assay type: in vivo, Matricaria inodora; conditions: post-emergence, dosage 80 g/ha, visual assessment about 3 weeks after treatment vs untreated controls
In short: (§1)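 Post-emergence foliar spray on greenhouse plants at the one-leaf stage, using wettable-powder or emulsion-concentrate formulations in water (600 to […], plus 0.2% wetting agent). Damage scored by eye roughly 3 weeks later against untreated plants: 0% = like control, 100% = dead.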

SETVI [2] = experiment: Post-emergence action against SETVI; assay type: in vivo, Setaria viridis; conditions: post-emergence, dosage 80 g/ha, visual assessment about 3 weeks after treatment vs untreated controls
In short: as §1

POLCO [3] = experiment: Post-emergence action against POLCO; assay type: in vivo, Polygonum convolvulus; conditions: post-emergence, dosage 80 g/ha
In short: as §1

LOLRI = experiment: Pre-emergence action against LOLRI; assay type: in vivo, Lolium rigidum; conditions: dosage 320 g/ha, scored visually after 3 weeks vs untreated controls
In short: (§2)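 Seeds sown in sandy loam in wood-fiber pots and covered with soil. Greenhouse growth; visual damage scored after 3 weeks versus untreated controls (100% = dead, 0% = like control).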

HORMU [4] = experiment: Pre-emergence action against HORMU; assay type: in vivo, Hordeum murinum; conditions: Dosage 320 g/ha
In short: as §2

PHBPU [5] = experiment: Pre-emergence action against PHBPU; assay type: in vivo, Pharbitis purpurea; conditions: Dosage 320 g/ha, pre-emergence
In short: as §2

VERPE [6] = experiment: Pre-emergence action against VERPE; assay type: in vivo, Veronica persica; conditions: Dosage 320 g/ha, pre-emergence
In short: as §2

AVEFA [7] = experiment: Post-emergence action against AVEFA; assay type: in vivo, Avena fatua; conditions: post-emergence, dosage 80 g/ha, visual assessment about 3 weeks after treatment vs untreated controls
In short: as §1

AVEFA [8] = experiment: Pre-emergence action against AVEFA; assay type: in vivo, Avena fatua; conditions: dosage 320 g/ha, scored visually after 3 weeks vs untreated controls
In short: as §2

AMARE [9] = experiment: Pre-emergence action against AMARE; assay type: in vivo, Amaranthus retroflexus; conditions: pre-emergence, dosage 320 g/ha, scored visually after 3 weeks vs untreated controls
In short: as §2

MATIN [10] = experiment: Pre-emergence action against MATIN; assay type: in vivo, Matricaria inodora; conditions: Dosage 320 g/ha, pre-emergence
In short: as §2

ABUTH [11] = experiment: Pre-emergence action against ABUTH; assay type: in vivo, Abutilon theophrasti; conditions: pre-emergence, dosage 320 g/ha, scored visually after 3 weeks vs untreated controls
In short: as §2

DIGSA [12] = experiment: Post-emergence action against DIGSA; assay type: in vivo, Digitaria sanguinalis; conditions: dosage 80 g/ha, visual assessment about 3 weeks after treatment vs untreated controls
In short: as §1

ALOMY [13] = experiment: Post-emergence action against ALOMY; assay type: in vivo, Alopecurus myosuroides; conditions: Dosage 80 g/ha, post-emergence
In short: as §1

ECHCG [14] = experiment: Post-emergence action against ECHCG; assay type: in vivo, Echinochloa crus-galli; conditions: post-emergence, dosage 80 g/ha, visual assessment about 3 weeks after treatment vs untreated controls
In short: as §1

ECHCG [15] = experiment: Pre-emergence action against ECHCG; assay type: in vivo, Echinochloa crus-galli; conditions: pre-emergence, dosage 320 g/ha, scored visually after 3 weeks vs untreated controls
In short: as §2

VIOTR [16] = experiment: Pre-emergence action against VIOTR; assay type: in vivo, Viola tricolor; conditions: Dosage 320 g/ha, pre-emergence
In short: as §2

ABUTH [17] = experiment: Post-emergence action against ABUTH; assay type: in vivo, Abutilon theophrasti; conditions: post-emergence, dosage 80 g/ha, visual assessment about 3 weeks after treatment vs untreated controls
In short: as §1

STEME [18] = experiment: Pre-emergence action against STEME; assay type: in vivo, Stellaria media; conditions: Dosage 320 g/ha, pre-emergence
In short: as §2

AMARE [19] = experiment: Post-emergence action against AMARE; assay type: in vivo, Amaranthus retroflexus; conditions: post-emergence, dosage 80 g/ha, visual assessment about 3 weeks after treatment vs untreated controls
In short: as §1

SETVI [20] = experiment: Pre-emergence action against SETVI; assay type: in vivo, Setaria viridis; conditions: pre-emergence, dosage 320 g/ha, scored visually after 3 weeks vs untreated controls
In short: as §2

VIOTR [21] = experiment: Post-emergence action against VIOTR; assay type: in vivo, Viola tricolor; conditions: post-emergence, dosage 80 g/ha
In short: as §1

STEME [22] = experiment: Post-emergence action against STEME; assay type: in vivo, Stellaria media; conditions: post-emergence, dosage 80 g/ha
In short: as §1

POLCO [23] = experiment: Pre-emergence action against POLCO; assay type: in vivo, Polygonum convolvulus; conditions: Dosage 320 g/ha, pre-emergence
In short: as §2

HORMU [24] = experiment: Post-emergence action against HORMU; assay type: in vivo, Hordeum murinum; conditions: dosage 80 g/ha
Procedure: Seeds of monocotyledonous and dicotyledonous weed and crop plants are laid out in sandy loam soil in wood-fiber pots, covered with soil and cultivated in a greenhouse under good growth conditions. 2 to 3 weeks after sowing, the test plants are treated at the one-leaf stage. The compounds of the invention, formulated in the form of wettable powders (WP) or as emulsion concentrates (EC), are then sprayed onto the green parts of the plants in the form of an aqueous suspension or emulsion at a water application rate equating to […], with addition of 0.2% wetting agent. After the test plants have been left to stand in the greenhouse under optimal growth conditions for about 3 weeks, the action of the preparations is assessed visually in comparison to untreated controls (herbicidal action in percent (%): 100% activity=the plants have died, 0% activity=like control plants). […] At the same time, inventive compounds leave Gramineae crops such as barley, wheat, rye, millet/Sorghum, corn or rice virtually undamaged when applied post-emergence, even at high active ingredient dosages. In addition, some substances are also harmless to dicotyledonous crops such as soya, cotton, oilseed rape, sugar beet or potatoes. Some of the compounds according to the invention have high selectivity and are therefore suitable for controlling unwanted vegetation in agricultural crops by the post-emergence method. The data of Tables B18 to B34 below illustrate, in an exemplary manner, the […] herbicidal action of the compounds according to the invention, the herbicidal activity being stated in percent.

DIGSA [25] = experiment: Pre-emergence action against DIGSA; assay type: in vivo, Digitaria sanguinalis; conditions: dosage 320 g/ha, scored visually after 3 weeks vs untreated controls
In short: as §2

VERPE [26] = experiment: Post-emergence action against VERPE; assay type: in vivo, Veronica persica; conditions: dosage 80 g/ha
In short: as §1

PHBPU [27] = experiment: Post-emergence action against PHBPU; assay type: in vivo, Pharbitis purpurea; conditions: post-emergence, dosage 80 g/ha
In short: as §1

ALOMY [28] = experiment: Pre-emergence action against ALOMY; assay type: in vivo, Alopecurus myosuroides; conditions: dosage 320 g/ha; pre-emergence; scored visually after 3 weeks vs untreated controls; 100% = plants have died, 0% = like control plants
In short: as §2

In the case of `CCn1nnnc1NC(=O)c1ccc(C(F)(F)F)c(C(=O)C2CC2)c1C1CC1` [2-233], the “Post-emergence action against MATIN (herbicidal action in percent)” value (MATIN [1]) is reported as 90%, the “Post-emergence action against SETVI (herbicidal action in percent)” value (SETVI [2]) is reported as 90% and the “Post-emergence action against POLCO” value (POLCO [3]) is reported as 80. The “Pre-emergence action against LOLRI (herbicidal activity)” value (LOLRI) was 90%, the “Pre-emergence action against HORMU” value (HORMU [4]) was 90% and the “Pre-emergence action against PHBPU” value (PHBPU [5]) was 100%. For the same molecule, the “Pre-emergence action against VERPE” value (VERPE [6]) was 100%, the “Post-emergence action against AVEFA (herbicidal action in percent)” value (AVEFA [7]) was 90% and the “Pre-emergence action against AVEFA (herbicidal activity)” value (AVEFA [8]) was 100%. The “Pre-emergence action against AMARE (herbicidal activity)” value (AMARE [9]) was 100%, the “Pre-emergence action against MATIN” value (MATIN [10]) was 100% and the “Pre-emergence action against ABUTH (herbicidal activity)” value (ABUTH [11]) was 100%. For the same molecule, the “Post-emergence action against DIGSA (herbicidal action in percent)” value (DIGSA [12]) was 90%, the “Post-emergence action against ALOMY” value (ALOMY [13]) was 90% and the “Post-emergence action against ECHCG (herbicidal action in percent)” value (ECHCG [14]) was 90%. For the same molecule, the “Pre-emergence action against ECHCG (herbicidal activity)” value (ECHCG [15]) was 100%, the “Pre-emergence action against VIOTR” value (VIOTR [16]) was 100% and the “Post-emergence action against ABUTH (herbicidal action in percent)” value (ABUTH [17]) was 100%. The “Pre-emergence action against STEME” value (STEME [18]) was 100%, the “Post-emergence action against AMARE (herbicidal action in percent)” value (AMARE [19]) was 100% and the “SETVI (Table B8, pre-emergence herbicidal activity)” value (SETVI [20]) was 100%. For the same molecule, the “Post-emergence action against VIOTR” value (VIOTR [21]) was 90, the “Post-emergence action against STEME” value (STEME [22]) was 90 and the “Pre-emergence action against POLCO” value (POLCO [23]) was 90%. For the same molecule, the “Post-emergence action against HORMU” value (HORMU [24]) was 90, the “Pre-emergence action against DIGSA (herbicidal activity)” value (DIGSA [25]) was 100% and the “Post-emergence action against VERPE” value (VERPE [26]) was 100. The “Post-emergence action against PHBPU” value (PHBPU [27]) was 90 and the “Pre-emergence action against ALOMY (herbicidal activity in percent)” value (ALOMY [28]) was 100%.
